Experimental data reported in US20260216152A1, “Combinations Comprising Benzodioxol as GLP-1R Agonists for Use in the Treatment of NASH/NAFLD and Related Diseases” (Pfizer Inc., priority 2019, published 2026).
One block for each molecule: values may come before it.

Columns and labels:
[1] = test system: fructose-induced steatosis; assay: Dietary fructose-feeding model with Sprague Dawley rats; assay type: in vivo
Description: [(1R,5S,6R)-3-{2-[(2S)-2-methylazetidin-1-yl]-6-(trifluoromethyl)pyrimidin-4-yl}-3-azabicyclo[3.1.0]hex-6-yl]acetic acid is a potent reversible inhibitor of human KHK-C The fructose, not glucose, component of dietary sugar is unique in its ability to promote features of metabolic syndrome, including steatosis, insulin resistance, and obesity.

[2] = Thermodynamic stability of crystal forms versus water activity; assay type: physicochemical; settings: ambient temperature; 0.2 = 20% RH
Experimental: Form 1 of Example ACCi is anhydrous and is thermodynamically stable below a water activity of about 0.2 (20% RH) at ambient temperature. Characteristic PXRD peaks of Form 1 of Example ACCi, expressed as 2θ+0.2° 2θ are at 9.6, 10.7, and 11.3.
Form 2 of Example ACCi is a trihydrate and is thermodynamically stable above a water activity of about 0.2 at ambient temperature and 20% RH. Characteristic PXRD peaks of Form 2 of Example ACCi, expressed as 2θ+0.2° 2θ are at 8.4, 9.0, 10.5, 15.0, and 24.7.

mouse MGAT1 = target: T1, mouse MGAT1 (Mus musculus, UniProt Q91ZV4); assay: Selectivity by biochemical assessment versus mouse MGAT1; settings: in vitro
T1 sequence (Q91ZV4 1-335): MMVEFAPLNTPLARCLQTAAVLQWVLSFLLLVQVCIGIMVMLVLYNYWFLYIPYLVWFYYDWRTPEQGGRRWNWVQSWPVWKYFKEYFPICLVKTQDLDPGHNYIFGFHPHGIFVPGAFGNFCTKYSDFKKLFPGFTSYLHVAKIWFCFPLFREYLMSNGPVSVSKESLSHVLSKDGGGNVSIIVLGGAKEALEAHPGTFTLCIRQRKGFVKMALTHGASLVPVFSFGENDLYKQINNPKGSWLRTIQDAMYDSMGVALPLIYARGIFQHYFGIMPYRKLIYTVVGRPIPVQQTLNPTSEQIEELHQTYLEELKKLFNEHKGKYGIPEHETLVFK
Description: (§1) (S)-2-(5-((3-ethoxypyridin-2-yl)oxy)pyridin-3-yl)-N-(tetrahydrofuran-3-yl)pyrimidine-5-carboxamide is an oral, small molecule DGAT2 inhibitor that is postulated to decrease hepatic triglyceride (TG) synthesis and hepatic lipid burden in NAFLD and NASH.

[3] = target: T2, recombinant human DGAT1 (hDGAT1) (Homo sapiens, UniProt O75907); assay: Selectivity by biochemical assessment versus hDGAT1; settings: in vitro
T2 sequence (O75907 1-488): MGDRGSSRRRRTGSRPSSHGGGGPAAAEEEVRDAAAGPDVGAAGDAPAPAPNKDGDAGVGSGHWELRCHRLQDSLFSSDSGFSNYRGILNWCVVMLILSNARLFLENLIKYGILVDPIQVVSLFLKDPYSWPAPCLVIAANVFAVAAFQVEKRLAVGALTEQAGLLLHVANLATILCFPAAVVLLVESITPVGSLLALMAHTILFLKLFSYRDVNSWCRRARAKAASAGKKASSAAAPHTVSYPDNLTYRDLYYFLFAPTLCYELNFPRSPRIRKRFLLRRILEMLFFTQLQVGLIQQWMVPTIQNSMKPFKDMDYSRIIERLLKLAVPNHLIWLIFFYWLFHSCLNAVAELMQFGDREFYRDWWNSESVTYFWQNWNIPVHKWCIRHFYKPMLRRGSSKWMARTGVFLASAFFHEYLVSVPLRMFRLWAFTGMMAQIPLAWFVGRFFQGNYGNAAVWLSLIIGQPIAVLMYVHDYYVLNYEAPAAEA
Description: as §1

[4] = Longer-term studies in western diet fed rats; assay type: in vivo
Description: as §1

[5] = Plasma triacylglycerol in rats fed a sucrose-diet; assay type: in vivo
Description: as §1

MGAT3 = target: T3, MGAT3 (Homo sapiens, UniProt Q86VF5); assay: Selectivity by biochemical assessment versus MGAT3; settings: in vitro
T3 sequence (Q86VF5 1-341): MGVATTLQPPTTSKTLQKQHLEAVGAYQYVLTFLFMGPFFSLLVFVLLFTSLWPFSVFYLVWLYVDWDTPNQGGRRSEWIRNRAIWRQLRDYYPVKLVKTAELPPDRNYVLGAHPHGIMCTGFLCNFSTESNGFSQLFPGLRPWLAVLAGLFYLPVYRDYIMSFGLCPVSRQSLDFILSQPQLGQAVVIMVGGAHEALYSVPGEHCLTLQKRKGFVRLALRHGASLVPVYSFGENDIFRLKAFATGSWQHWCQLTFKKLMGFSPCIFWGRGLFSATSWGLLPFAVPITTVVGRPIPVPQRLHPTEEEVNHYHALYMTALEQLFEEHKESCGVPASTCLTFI
Description: as §1

[6] = target: monoacylglycerol acyltransferase 2 (MGAT2) (Homo sapiens, UniProt Q3SYC2); assay: Selectivity by biochemical assessment versus MGAT2; settings: in vitro
Chain of monoacylglycerol acyltransferase 2 (MGAT2) (Q3SYC2 whole entry): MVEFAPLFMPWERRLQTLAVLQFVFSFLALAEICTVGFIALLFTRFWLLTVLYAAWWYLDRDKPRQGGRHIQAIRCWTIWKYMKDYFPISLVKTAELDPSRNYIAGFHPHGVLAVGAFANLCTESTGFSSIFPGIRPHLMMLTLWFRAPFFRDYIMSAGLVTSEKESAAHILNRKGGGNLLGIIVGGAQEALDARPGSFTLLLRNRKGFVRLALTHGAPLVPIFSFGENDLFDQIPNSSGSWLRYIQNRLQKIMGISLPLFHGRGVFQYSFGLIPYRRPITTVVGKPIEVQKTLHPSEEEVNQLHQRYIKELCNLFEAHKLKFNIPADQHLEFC
Description: as §1

in vivo [7] = settings: monkey
in vivo [8] = settings: rat
rat ACC isozymes = assay: Inhibition of rat ACC isozymes, incorporation of [14C]-carbonate into [14C]-malonyl-CoA; assay type: biochemical; settings: saturating concentrations of ATP
[9] = Circulating TGs in human subjects; assay type: in vivo
Description: (§2) It appears that the administration of an ACC inhibitor may have positive effects to lower hepatic TGs and potentially other beneficial effects on treatment of NASH.

liver malonyl-CoA = assay: Liver malonyl-CoA in rats; assay type: in vivo
human ACC isozymes = assay: Inhibition of human ACC isozymes, incorporation of [14C]-carbonate into [14C]-malonyl-CoA; assay type: biochemical; settings: saturating concentrations of ATP
hepatic DNL = settings: Phase 1 study, healthy adult subjects; cited from earlier work
[10] = Western diet fed Sprague Dawley rats, ACCi and DGAT2i as monotherapy and in combination (FIG. 10-18); assay type: in vivo
Description: as §2

circulating FGF19 = assay: Circulating FGF19 levels after single and multiple doses; assay type: in vivo
Description: Pharmacological activation of […] has been proposed as a target for the treatment of NASH (Cariou 2008, Porez et al 2012). […] The nuclear receptor FXR, also known as the Bile Acid Receptor (BAR; NR1H4), is responsible for modulating bile acid production, conjugation, and elimination.

SMILES: C[C@H]1CCN1c1nc(N2C[C@@H]3[C@@H](CC(=O)O)[C@@H]3C2)cc(C(F)(F)F)n1 [Example KHKi, [(1R,5S,6R)-3-{2-[(2S)-2-methylazetidin-1-yl]-6-(trifluoromethyl)pyrimidin-4-yl}-3-azabicyclo[3.1.0]hex-6-yl]Acetic acid]
incidence of fructose-induced steatosis [1]: reduced the incidence of fructose-induced steatosis

water activity at which the form is thermodynamically stable [2]: > 0.2
SMILES: COc1cc(C(=O)N2CCC3(CC2)CC(=O)c2c(cnn2C(C)C)C3)cc(-c2ccc(C(=O)O)cc2)n1 [Form 2 of Example ACCi]

selectivity versus mouse MGAT1 (mouse MGAT1): > 2000 fold | selectivity versus hDGAT1 [3]: > 2000 fold | selectivity versus MGAT3 (MGAT3): > 2000 fold | selectivity versus MGAT2 [6]: > 2000 fold
SMILES: CCOc1cccnc1Oc1cncc(-c2ncc(C(=O)N[C@H]3CCOC3)cn2)c1 [Example DGAT2i, (S)-2-(5-((3-ethoxypyridin-2-yl)oxy)pyridin-3-yl)-N-(tetrahydrofuran-3-yl)pyrimidine-5-carboxamide]
hepatic lipid accumulation [4]: reduced | plasma triacylglycerol [4]: reduced | plasma triacylglycerol [5]: robust, dose-dependent reduction of plasma triacylglycerol

water activity at which the form is thermodynamically stable [2]: < 0.2
SMILES: COc1cc(C(=O)N2CCC3(CC2)CC(=O)c2c(cnn2C(C)C)C3)cc(-c2ccc(C(=O)O)cc2)n1 [Form 1 of Example ACCi]

Kp (in vivo [7]): ≥ 100 | Kp (in vivo [8]): ≥ 100 | circulating TGs [9]: elevations in circulating TGs | circulating TGs (generally measured from plasma) [10]: elevations in circulating TGs
SMILES: COc1cc(C(=O)N2CCC3(CC2)CC(=O)c2c(cnn2C(C)C)C3)cc(-c2ccc(C(=O)O)cc2)n1 [Example ACCi, 4-(4-(1-isopropyl-7-oxo-1,4,6,7-tetrahydrospiro[indazole-5,4′-piperidine]-1′-carbonyl)-6-methoxypyridin-2-yl)benzoic Acid]
inhibition of incorporation of [14C]-carbonate into [14C]-malonyl-CoA (rat ACC isozymes): inhibited incorporation of [^14C]-carbonate into [^14C]-malonyl-CoA in a concentration-dependent manner | liver malonyl-CoA (liver malonyl-CoA): dose and free plasma concentration-dependent reductions in liver malonyl-CoA | inhibition of incorporation of [14C]-carbonate into [14C]-malonyl-CoA (human ACC isozymes): inhibited incorporation of [^14C]-carbonate into [^14C]-malonyl-CoA in a concentration-dependent manner | hepatic DNL (hepatic DNL): suppress hepatic DNL

SMILES: O=C(O)c1cc(F)c2nc(N3C4CC[C@H]3CC(OCc3c(-c5ccccc5OC(F)(F)F)noc3C3CC3)C4)sc2c1 (stereo partly drawn) [Tropifexor, 2-[(1R,3R,5S)-3-({5-cyclopropyl-3-[2-(trifluoromethoxy)phenyl]-1,2-oxazol-4-yl}methoxy)-8-azabicyclo[3.2.1]octan-8-yl]-4-fluoro-1,3-benzothiazole-6-carboxylic acid]
circulating FGF19 levels (circulating FGF19): robust, dose-dependent increase in circulating FGF19 levels
